According to patent publication US7501430B2 (ArQule, Inc., priority 2006, dated 2009):
Read-outs that look alike come from different tables or passages of the source.

Target: T1, mutant B-RAF (Homo sapiens, UniProt P15056, V600E)
T1 construct: purchased Upstate (Charlottesville, Va.)
Test: RAF biochemical assay (MEK-1 phosphorylation, anti-phospho MEK1/2 detection)
Settings: for inhibition at 10 µM: read-out: Mutant B-RAF % inhibition
Procedure, shortened: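 Detection is by ELISA: after a 30 min room-temperature reaction, plate-captured GST-MEK-1 is probed with anti-phospho MEK1/2, then an AP-tagged secondary antibody with fluorescent Attophos read-out.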

T1 sequence (P15056 whole entry V600E): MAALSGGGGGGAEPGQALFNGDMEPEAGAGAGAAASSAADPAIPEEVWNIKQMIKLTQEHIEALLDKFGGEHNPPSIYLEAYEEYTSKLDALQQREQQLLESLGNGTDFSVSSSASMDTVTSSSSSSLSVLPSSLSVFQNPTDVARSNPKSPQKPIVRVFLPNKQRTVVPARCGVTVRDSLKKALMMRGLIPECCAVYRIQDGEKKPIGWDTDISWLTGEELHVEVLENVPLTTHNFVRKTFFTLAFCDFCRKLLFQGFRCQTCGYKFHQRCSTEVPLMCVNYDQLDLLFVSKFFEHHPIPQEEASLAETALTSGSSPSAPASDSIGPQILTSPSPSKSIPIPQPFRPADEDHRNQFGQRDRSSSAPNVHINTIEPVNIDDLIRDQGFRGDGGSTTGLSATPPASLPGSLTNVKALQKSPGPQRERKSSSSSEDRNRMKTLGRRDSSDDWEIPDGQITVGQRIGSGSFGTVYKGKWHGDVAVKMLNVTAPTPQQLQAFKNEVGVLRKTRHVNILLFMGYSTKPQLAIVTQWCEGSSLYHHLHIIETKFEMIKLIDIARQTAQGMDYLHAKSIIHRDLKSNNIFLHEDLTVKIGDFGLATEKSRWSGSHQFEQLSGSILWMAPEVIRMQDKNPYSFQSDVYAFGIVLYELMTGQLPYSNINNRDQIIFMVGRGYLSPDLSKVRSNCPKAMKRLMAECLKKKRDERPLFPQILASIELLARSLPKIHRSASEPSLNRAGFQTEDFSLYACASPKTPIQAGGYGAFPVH

IC50 (read-out: Mutant B-RAF IC50) | inhibition at 10 µM (@ 10 uM) | Compound | also measured
1 nM |  | CC(=O)Nc1ccc(S(=O)(=O)N2CCC[C@@H](Nc3nccc(-c4c(-c5cccc(O)c5)nc5sccn45)n3)C2)cc1 [Example 374, N-(4-{[(3R)-3-({4-[6-(3-hydroxyphenyl)imidazo[2,1-b][1,3]thiazol-5-yl]pyrimidin-2-yl}amino)piperidin-1-yl]sulfonyl}phenyl)acetamide] | 
 | 14% | Fc1ccc(CN2CCC(Nc3nccc(-c4c(-c5ccc(F)cc5)nc5sccn45)n3)CC2)cc1 [Example 293, N-[1-(4-fluorobenzyl)piperidin-4-yl]-4-[6-(4-fluorophenyl)imidazo[2,1-b][1,3]thiazol-5-yl]pyrimidin-2-amine] | 
3 nM |  | O=S(=O)(c1ccsc1)N1CCC[C@@H](Nc2nccc(-c3c(-c4cccc(O)c4)nc4sccn34)n2)C1 [Example 367, 3-[5-(2-{[(3R)-1-(3-thienylsulfonyl)piperidin-3-yl]amino}pyrimidin-4-yl)imidazo[2,1-b][1,3]thiazol-6-yl]phenol] | 
9 nM |  | O=S(=O)(c1cccs1)N1CCC[C@@H](Nc2nccc(-c3c(-c4cccc(O)c4)nc4occn34)n2)C1 [Example 388, 3-[5-(2-{[(3R)-1-(2-thienylsulfonyl)piperidin-3-yl]amino}pyrimidin-4-yl)imidazo[2,1-b][1,3]oxazol-6-yl]phenol] | 
33 nM |  | O=C(OC[C@H](O)CO)c1ccc(S(=O)(=O)N2CCC[C@@H](Nc3nccc(-c4c(-c5cccc(O)c5)nc5sccn45)n3)C2)cc1 [Example 341, (2R)-2,3-dihydroxypropyl 4-{[(3R)-3-({4-[6-(3-hydroxyphenyl)imidazo[2,1-b][1,3]thiazol-5-yl]pyrimidin-2-yl}amino)piperidin-1-yl]sulfonyl}benzoate] | 
280 nM |  | O=Cc1cccc(-c2nc3sccn3c2-c2ccnc(N[C@@H]3CCCN(S(=O)(=O)c4ccc(Cl)cc4)C3)n2)c1 [Example 390, 3-{5-[2-({(3R)-1-[(4-chlorophenyl)sulfonyl]piperidin-3-yl}amino)pyrimidin-4-yl]imidazo[2,1-b][1,3]thiazol-6-yl}benzaldehyde] | 
4000 nM |  | COc1cccc(-c2nc3sccn3c2-c2ccnc(N[C@@H]3CCCN(C(=O)Nc4ccc(SC)cc4)C3)n2)c1 [Example 330, (3R)-3-({4-[6-(3-methoxyphenyl)imidazo[2,1-b][1,3]thiazol-5-yl]pyrimidin-2-yl}amino)-N-[4-(methylthio)phenyl]piperidine-1-carboxamide] | 

Continued, compound first:

Compound | IC50 (read-out: Mutant B-RAF IC50) | inhibition at 10 µM (@ 10 uM) | also measured
CS(=O)(=O)N1CCC[C@@H](Nc2nccc(-c3c(-c4cccc(O)c4)nc4sccn34)n2)C1 [Example 152, 3-[5-(2-{[(3R)-1-(methylsulfonyl)piperidin-3-yl]amino}pyrimidin-4-yl)imidazo[2,1-b][1,3]thiazol-6-yl]phenol] | 116 nM |  | 
O=S(=O)(c1ccc(Cl)cc1)N1CCC(Nc2nccc(-c3c(-c4ccc(O)cc4)nc4sccn34)n2)CC1 [Example 264, 4-{5-[2-({1-[(4-chlorophenyl)sulfonyl]piperidin-4-yl}amino)pyrimidin-4-yl]imidazo[2,1-b][1,3]thiazol-6-yl}phenol] |  | 5% | 
COc1cccc(-c2nc3sccn3c2-c2ccnc(N[C@H]3CCCN(S(=O)(=O)c4ccc(Cl)cc4)C3)n2)c1 [Example 139, N-{(3S)-1-[(4-chlorophenyl)sulfonyl]piperidin-3-yl}-4-[6-(3-methoxyphenyl)imidazo[2,1-b][1,3]thiazol-5-yl]pyrimidin-2-amine] |  | 41% | 
Cc1noc(C)c1NC(=O)N1CCC(Nc2nccc(-c3c(-c4ccc(F)cc4)nc4occn34)n2)CC1 [Example 178, N-(3,5-dimethylisoxazol-4-yl)-4-({4-[6-(4-fluorophenyl)imidazo[2,1-b][1,3]oxazol-5-yl]pyrimidin-2-yl}amino)piperidine-1-carboxamide] |  | 19% | 
COc1cccc(-c2nc3sccn3c2-c2ccnc(N[C@@H]3CCCN(C(=O)Nc4ccc(N(C)C)cc4)C3)n2)c1 [Example 84, (3R)-N-[4-(dimethylamino)phenyl]-3-({4-[6-(3-methoxyphenyl)imi-dazo[2,1-b][1,3]thiazol-5-yl]pyrimidin-2-yl}amino)piperidine-1-carboxamide] |  |  | inhibition at 10 µM: 19%
NC(=O)Oc1cccc(-c2nc3sccn3c2-c2ccnc(N[C@@H]3CCCN(S(=O)(=O)c4ccc(Cl)cc4)C3)n2)c1 [Example 364, 3-{5-[2-({(3R)-1-[(4-chlorophenyl)sulfonyl]piperidin-3-yl}amino)pyrimidin-4-yl]imidazo[2,1-b][1,3]thiazol-6-yl}phenyl carbamate] | 7 nM |  | 
CN(C)c1ccc(NC(=O)N2CCC(Nc3nccc(-c4c(-c5ccc(F)c(F)c5)nc5sccn45)n3)CC2)cc1 [Example 226, 4-({4-[6-(3,4-difluorophenyl)imidazo[2,1-b][1,3]thiazol-5-yl]pyrimidin-2-yl}amino)-N-[4-(dimethylamino)phenyl]piper-idine-1-carboxamide] |  | 61% | 
Cc1ccc(-c2nc3scc(C)n3c2-c2ccnc(NC3CCNCC3)n2)cc1 [Example 246, 4-[3-methyl-6-(4-methylphenyl)imidazo[2,1-b][1,3]thiazol-5-yl]-N-piperidin-4-ylpyrimidin-2-amine] | > 10000 nM |  | 
CC(=O)Nc1nc(C)c(S(=O)(=O)N2CCC[C@@H](Nc3nccc(-c4c(-c5ccc(F)cc5)nc5occn45)n3)C2)s1 [Example 64, N-(5-{[(3R)-3-({4-[6-(4-fluorophenyl)imidazo[2,1-b][1,3]oxazol-5-yl]pyrimidin-2-yl}amino)piperidin-1-yl]sulfonyl}-4-methyl-1,3-thiazol-2-yl)acetamide] |  | 58% | 
O=C(c1ccco1)N1CCC[C@@H](Nc2nccc(-c3c(-c4ccc(F)cc4)nc4occn34)n2)C1 [Example 33, 4-[6-(4-fluorophenyl)imi-dazo[2,1-b][1,3]oxazol-5-yl]-N-[(3R)-1-(2-furoyl)piperidin-3-yl]pyrimidin-2-amine] |  |  | IC50: 2170 nM
COc1cccc(OC)c1C(=O)N1CCC(Nc2nccc(-c3c(-c4ccc(F)cc4)nc4occn34)n2)CC1 [Example 210, N-[1-(2,6-dimethoxybenzoyl)piperidin-4-yl]-4-[6-(4-fluorophenyl)imidazo[2,1-b][1,3]oxazol-5-yl]pyrimidin-2-amine] |  | 38% | 
Fc1ccc(-c2nc3sccn3c2-c2ccnc(N[C@H]3CCNC3)n2)cc1 [Example 275, 4-[6-(4-fluorophenyl)imidazo[2,1-b][1,3]thiazol-5-yl]-N-[(3S)-pyrrolidin-3-yl]pyrimidin-2-amine] |  | 30% | 
O=S(=O)(c1ccc(Cl)cc1)N1CCC[C@@H](Nc2nccc(-c3c(-c4ccc(F)cc4)nc4occn34)n2)C1 [Example 43, N-{(3R)-1-[(4-chlorophenyl)sulfonyl]piper-idin-3-yl}-4-[6-(4-fluorophenyl)imidazo[2,1-b][1,3]oxazol-5-yl]pyrimidin-2-amine] | 143 nM |  | 
O=C(N1CCOCC1)N1CCC[C@@H](Nc2nccc(-c3c(-c4ccc(F)cc4)nc4occn34)n2)C1 [Example 41, 4-[6-(4-fluorophenyl)imi-dazo[2,1-b][1,3]oxazol-5-yl]-N-[(3R)-1-(morpholin-4-ylcarbonyl)piperidin-3-yl]pyrimidin-2-amine] |  |  | inhibition at 10 µM: 38%
